From patent US9999222B2, “Herbicidal combination comprising azines” (BASF SE, priority 2014, dated 2018)
Like-named read-outs stand apart in the source and are kept apart here.

Assays:
Assay in all cases: Greenhouse test, pre-emergence treatment
CENCY [1] = assay type: in vivo, Centaurea cyanus
DIGSA [2] = assay type: in vivo; details: Digitaria sanguinalis, 480 h, read-out: observed % activity 20 DAT
ERICA [3] = assay type: in vivo; details: 480 h, read-out: observed % activity 20 DAT
ERICA [4] = assay type: in vivo, Erigeron canadensis
ABUTH = assay type: in vivo, Abutilon theophrasti; details: Abutilon theophrasti, 480 h, read-out: observed % activity 20 DAT
Method in brief: (§1)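 Damage was rated on a 0-100 scale, with 100 meaning no emergence or full destruction of aerial parts. Observed combination effects were set against the additive Colby expectation E=X+Y−(X·Y/100). Spray liquor was water-based, from 10% emulsion concentrates, applied pre-emergence right after sowing in loamy sand (about 3.0% humus). Plants were held at 10-25 °C or 20-35 °C for 2 to 4 weeks.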

IPOHE = assay type: in vivo, Ipomoea hederacea
Method in brief: as §1

CENCY [5] = assay type: in vivo; details: individual
DIGSA [6] = assay type: in vivo, Digitaria sanguinalis; details: 4 g ai/ha
SIDRH = assay type: in vivo, Sida rhombifolia; details: pre-emergence
Method in brief: as §1

[7] = Ipomoea hederacea, 480 h, 4 g ai/ha, read-out: observed % activity 20 DAT
[8] = Sida rhombifolia, 480 h, 8 g ai/ha, read-out: observed % activity 20 DAT

With `Nc1nc(Nc2c(F)c(F)cc(F)c2F)nc(C2(F)CCCC2)n1` [compound 9, 6-(1-fluorocyclopentyl)-N4-(2,3,5,6-tetrafluorophenyl)-1,3,5-triazine-2,4-diamine] the “observed % activity 20 DAT” value (CENCY [1]; 4 g ai/ha) was 40%, the “observed % activity 20 DAT” value (CENCY [1]; 8 g ai/ha) was 20% and the inhibition at 2 g/ha (DIGSA [2]; 2 g ai/ha) was 75%. The inhibition at 4 g/ha (DIGSA [2]; 4 g ai/ha) was 60%, the inhibition at 4 g/ha (ERICA [3]; 4 g ai/ha) was 98% and the inhibition at 8 g/ha (ERICA [3]; 8 g ai/ha) was 98%. For the same compound, the “observed % activity 20 DAT” value (ERICA [4]; 4 g ai/ha) was 98%, the “observed % activity 20 DAT” value (ERICA [4]; 8 g ai/ha) was 98% and the pest or weed control at 4 g/ha (ABUTH; 4 g ai/ha) was 55%. The inhibition at 8 g/ha (ABUTH; 8 g ai/ha) was 20%, the pest or weed control at 8 g/ha (ABUTH; 8 g ai/ha) was 40% and the inhibition at 16 g/ha (ABUTH; 16 g ai/ha) was 20%. For the same compound, the inhibition at 8 g/ha (ABUTH; ABUTH, individual, use rate 8 g ai/ha) was 20%, the inhibition at 16 g/ha (ABUTH; ABUTH, individual, use rate 16 g ai/ha) was 20% and the “observed % activity 20 DAT” value (IPOHE; 16 g ai/ha) was 15%. For the same compound, the “observed % activity 20 DAT” value (IPOHE; IPOHE, individual, use rate 16 g ai/ha) was 15%, the inhibition at 4 g/ha (IPOHE; [7]) was 0% and the pest or weed control at 4 g/ha (IPOHE; [7]) was 0%. It also gave an inhibition at 16 g/ha (IPOHE; Ipomoea hederacea, 480 h, 16 g ai/ha, read-out: observed % activity 20 DAT) of 10%, an inhibition at 16 g/ha (IPOHE; Ipomoea hederacea, 480 h, IPOHE, individual, use rate 16 g ai/ha, read-out: observed % activity 20 DAT) of 10% and an inhibition at 8 g/ha (CENCY [5]; 480 h, use rate 8 g ai/ha, read-out: observed % activity 20 DAT) of 20%. The inhibition at 16 g/ha (CENCY [5]; 480 h, use rate 16 g ai/ha, read-out: observed % activity 20 DAT) was 15%, the “observed % activity 20 DAT” value (CENCY [5]; use rate 8 g ai/ha) was 35% and the “observed % activity 20 DAT” value (DIGSA [6]) was 80%. For the same compound, the “observed % activity 20 DAT” value (SIDRH; SIDRH, individual, use rate 8 g ai/ha) was 15%, the “observed % activity 20 DAT” value (SIDRH; SIDRH, individual, use rate 16 g ai/ha) was 55% and the pest or weed control at 4 g/ha (SIDRH; Sida rhombifolia, 480 h, 4 g ai/ha, read-out: observed % activity 20 DAT) was 10%. It also gave a pest or weed control at 8 g/ha (SIDRH; [8]) of 10%, an inhibition at 8 g/ha (SIDRH; Sida rhombifolia, 480 h, SIDRH, individual, use rate 8 g ai/ha, read-out: observed % activity 20 DAT) of 25% and an inhibition at 8 g/ha (SIDRH; [8]) of 25%. For the same compound, the inhibition at 16 g/ha (SIDRH; Sida rhombifolia, 480 h, 16 g ai/ha, read-out: observed % activity 20 DAT) was 30%.
